Results taken from PubChem BioAssay (NCI).
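Where inhibition never reached the appropriate level, the endpoint shown equals the highest concentration tested. Otherwise, values were interpolated linearly from a five-concentration, 48-hour dose response in 96-well plates. TGI: concentration producing complete growth inhibition.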

Experiments:
Assay in all cases: DTP human tumour cell line panel, 48 h
LOX IMVI melanoma = tested on: LOX IMVI melanoma
U251 CNS = tested on: U251 CNS
NCI-H226 lung = tested on: NCI-H226 lung
ACHN renal = tested on: ACHN renal
SNB-78 CNS = tested on: SNB-78 CNS
UACC-62 melanoma = tested on: UACC-62 melanoma
NCI-H23 lung = tested on: NCI-H23 lung
EKVX NSCLC = tested on: EKVX NSCLC
SNB-19 CNS = tested on: SNB-19 CNS
HOP-62 NSCLC = tested on: HOP-62 NSCLC
TK-10 renal = tested on: TK-10 renal
SN12C renal = tested on: SN12C renal
SK-MEL-2 melanoma = tested on: SK-MEL-2 melanoma
OVCAR-5 ovarian = tested on: OVCAR-5 ovarian
HCT-15 colon = tested on: HCT-15 colon
HOP-18 NSCLC = tested on: HOP-18 NSCLC
LXFL 529 NSCLC = tested on: LXFL 529 NSCLC
IGROV1 ovarian = tested on: IGROV1 ovarian
DLD-1 colon = tested on: DLD-1 colon
SK-OV-3 ovarian = tested on: SK-OV-3 ovarian
SK-MEL-5 melanoma = tested on: SK-MEL-5 melanoma
SF-539 CNS = tested on: SF-539 CNS
RXF-631 renal = tested on: RXF-631 renal
NCI-H522 lung = tested on: NCI-H522 lung
OVCAR-3 ovarian = tested on: OVCAR-3 ovarian
SF-268 CNS = tested on: SF-268 CNS
UACC-257 melanoma = tested on: UACC-257 melanoma
DMS 114 small cell lung = tested on: DMS 114 small cell lung
CCRF-CEM leukemia = tested on: CCRF-CEM leukemia
KM20L2 colon = tested on: KM20L2 colon
SF-295 CNS = tested on: SF-295 CNS
SK-MEL-28 melanoma = tested on: SK-MEL-28 melanoma
SNB-75 CNS = tested on: SNB-75 CNS
CAKI-1 renal = tested on: CAKI-1 renal
KM12 colon = tested on: KM12 colon
XF 498 CNS = tested on: XF 498 CNS
A498 renal = tested on: A498 renal
MOLT-4 leukemia = tested on: MOLT-4 leukemia
RXF 393 renal = tested on: RXF 393 renal
M19-MEL melanoma = tested on: M19-MEL melanoma
RPMI-8226 leukemia = tested on: RPMI-8226 leukemia
SW-620 colon = tested on: SW-620 colon
786-0 renal = tested on: 786-0 renal
HCT-116 colon = tested on: HCT-116 colon
A549 NSCLC = tested on: A549 NSCLC
NCI-H460 lung = tested on: NCI-H460 lung
HL-60(TB) leukemia = tested on: HL-60(TB) leukemia
K-562 leukemia = tested on: K-562 leukemia
OVCAR-8 ovarian = tested on: OVCAR-8 ovarian
HT29 colon = tested on: HT29 colon
M14 melanoma = tested on: M14 melanoma
UO-31 renal = tested on: UO-31 renal
MALME-3M melanoma = tested on: MALME-3M melanoma
HCC-2998 colon = tested on: HCC-2998 colon
DMS 273 small cell lung = tested on: DMS 273 small cell lung
OVCAR-4 ovarian = tested on: OVCAR-4 ovarian
SR leukemia = tested on: SR leukemia
COLO 205 colon = tested on: COLO 205 colon

COC(=O)c1nc(-c2ccc(Cl)c(Cl)c2)nc2ccccc12
TGI (LOX IMVI melanoma): > 100 µM
TGI (U251 CNS): > 100 µM
TGI (NCI-H226 lung): 78.1 µM
TGI (ACHN renal): > 100 µM
TGI (SNB-78 CNS): > 100 µM
TGI (UACC-62 melanoma): > 100 µM
TGI (NCI-H23 lung): > 100 µM
TGI (EKVX NSCLC): > 100 µM
TGI (SNB-19 CNS): 79.5 µM
TGI (HOP-62 NSCLC): 62.8 µM
TGI (TK-10 renal): > 83.5 µM
TGI (SN12C renal): > 100 µM
TGI (SK-MEL-2 melanoma): > 100 µM
TGI (OVCAR-5 ovarian): > 100 µM
TGI (HCT-15 colon): > 100 µM
TGI (HOP-18 NSCLC): 4.99 µM
TGI (LXFL 529 NSCLC): > 100 µM
TGI (IGROV1 ovarian): > 100 µM
TGI (DLD-1 colon): > 100 µM
TGI (SK-OV-3 ovarian): 31.2 µM
TGI (SK-MEL-5 melanoma): > 100 µM
TGI (SF-539 CNS): > 61.3 µM
TGI (RXF-631 renal): > 100 µM
TGI (NCI-H522 lung): > 100 µM
TGI (OVCAR-3 ovarian): > 100 µM
TGI (SF-268 CNS): > 100 µM
TGI (UACC-257 melanoma): > 100 µM
TGI (DMS 114 small cell lung): > 100 µM
TGI (CCRF-CEM leukemia): > 100 µM
TGI (KM20L2 colon): > 100 µM
TGI (SF-295 CNS): > 31.1 µM
TGI (SK-MEL-28 melanoma): > 100 µM
TGI (SNB-75 CNS): 11.3 µM
TGI (CAKI-1 renal): > 100 µM
TGI (KM12 colon): > 100 µM
TGI (XF 498 CNS): 19.7 µM
TGI (A498 renal): > 73.7 µM
TGI (MOLT-4 leukemia): > 100 µM
TGI (RXF 393 renal): 42.9 µM
TGI (M19-MEL melanoma): > 100 µM
TGI (RPMI-8226 leukemia): > 100 µM
TGI (SW-620 colon): > 100 µM
TGI (786-0 renal): 47.8 µM
TGI (HCT-116 colon): > 100 µM
TGI (A549 NSCLC): > 100 µM
TGI (NCI-H460 lung): > 100 µM
TGI (HL-60(TB) leukemia): > 100 µM
TGI (K-562 leukemia): > 100 µM
TGI (OVCAR-8 ovarian): > 100 µM
TGI (HT29 colon): > 100 µM
TGI (M14 melanoma): > 100 µM
TGI (UO-31 renal): > 100 µM
TGI (MALME-3M melanoma): > 100 µM
TGI (HCC-2998 colon): > 100 µM
TGI (DMS 273 small cell lung): > 100 µM

CCNC(=O)C(O)C1(O)CCC2[C@@H]3CCC4=CC(=O)C=C[C@]4(C)C3[C@@H](O)C[C@@]21C (stereo partly specified)
TGI (LOX IMVI melanoma): > 100 µM
TGI (U251 CNS): > 100 µM
TGI (NCI-H226 lung): > 100 µM
TGI (ACHN renal): > 100 µM
TGI (SNB-78 CNS): > 100 µM
TGI (UACC-62 melanoma): > 100 µM
TGI (NCI-H23 lung): > 100 µM
TGI (EKVX NSCLC): > 100 µM
TGI (SNB-19 CNS): > 100 µM
TGI (HOP-62 NSCLC): > 100 µM
TGI (TK-10 renal): > 100 µM
TGI (OVCAR-4 ovarian): > 100 µM
TGI (SN12C renal): > 100 µM
TGI (SK-MEL-2 melanoma): > 100 µM
TGI (OVCAR-5 ovarian): > 100 µM
TGI (HCT-15 colon): > 100 µM
TGI (HOP-18 NSCLC): > 100 µM
TGI (LXFL 529 NSCLC): > 100 µM
TGI (IGROV1 ovarian): > 100 µM
TGI (DLD-1 colon): > 100 µM
TGI (SK-OV-3 ovarian): > 100 µM
TGI (SR leukemia): > 100 µM
TGI (SF-539 CNS): > 100 µM
TGI (RXF-631 renal): > 100 µM
TGI (NCI-H522 lung): > 100 µM
TGI (OVCAR-3 ovarian): > 100 µM
TGI (SF-268 CNS): > 79.9 µM
TGI (UACC-257 melanoma): > 100 µM
TGI (DMS 114 small cell lung): > 100 µM
TGI (CCRF-CEM leukemia): > 100 µM
TGI (KM20L2 colon): > 100 µM
TGI (SF-295 CNS): > 100 µM
TGI (SK-MEL-28 melanoma): > 100 µM
TGI (SNB-75 CNS): > 100 µM
TGI (CAKI-1 renal): > 100 µM
TGI (KM12 colon): > 100 µM
TGI (XF 498 CNS): > 100 µM
TGI (MOLT-4 leukemia): > 100 µM
TGI (RXF 393 renal): > 100 µM
TGI (M19-MEL melanoma): > 100 µM
TGI (RPMI-8226 leukemia): > 100 µM
TGI (SW-620 colon): > 100 µM
TGI (786-0 renal): > 100 µM
TGI (HCT-116 colon): > 100 µM
TGI (A549 NSCLC): > 100 µM
TGI (NCI-H460 lung): > 100 µM
TGI (COLO 205 colon): > 100 µM
TGI (HL-60(TB) leukemia): > 79.4 µM
TGI (K-562 leukemia): > 100 µM
TGI (OVCAR-8 ovarian): > 100 µM
TGI (HT29 colon): > 100 µM
TGI (M14 melanoma): > 100 µM
TGI (UO-31 renal): > 100 µM
TGI (MALME-3M melanoma): > 100 µM
TGI (HCC-2998 colon): > 100 µM
TGI (DMS 273 small cell lung): > 100 µM
